We go through 26 compounds from patent US10336762B2 (priority 2017, dated 2019).

Molecules are shown by their SMILES. Where only a bound is given, the exact number is not on record here.

In general, IC50 refers to the concentration at which inhibition is half-maximal. For orientation: EC50 means the concentration giving half of the maximal effect.

One assay deals with IRAK4 enzyme (Homo sapiens (Human), UniProt Q9NWZ3). The assay is described as follows: biochemical. It is filed as biochemical. Particulars: IRAK4 enzyme, TR-FRET, 500 μM ATP. (In general: TR-FRET usually uses a lanthanide donor and a delayed reading to cut background.)
IRAK4 enzyme, sequence (Q9NWZ3 whole entry): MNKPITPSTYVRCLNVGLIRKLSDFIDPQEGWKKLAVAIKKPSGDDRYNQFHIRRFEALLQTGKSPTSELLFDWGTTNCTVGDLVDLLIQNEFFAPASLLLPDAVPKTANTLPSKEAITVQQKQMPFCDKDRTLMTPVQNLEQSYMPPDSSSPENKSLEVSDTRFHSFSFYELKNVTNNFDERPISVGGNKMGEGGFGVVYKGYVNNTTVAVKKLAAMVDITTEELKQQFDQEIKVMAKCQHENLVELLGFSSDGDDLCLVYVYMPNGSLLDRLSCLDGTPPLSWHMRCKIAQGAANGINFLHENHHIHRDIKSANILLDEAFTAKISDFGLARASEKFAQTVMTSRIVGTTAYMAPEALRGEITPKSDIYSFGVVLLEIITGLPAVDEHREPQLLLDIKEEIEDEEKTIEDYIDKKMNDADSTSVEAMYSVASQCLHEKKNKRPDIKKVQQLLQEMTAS
The next assay relates to TNFα. The assay is described as follows: cells. It is filed as cell-based, human. The conditions noted are these: Homo sapiens, Monocyte, LPS-stimulated human monocytes, TNFα content; read-out: EC50 TNF.

At IRAK4 enzyme, `CC(C)Nc1cc(-c2ccc3cc(C#N)cnn23)ncc1C(=O)NC1CC2(COC2)C1` [Example 96, 6-(3-cyanopyrrolo[1,2-b]pyridazin-7-yl)-4-(isopropyl-amino)-N-(2-oxaspiro[3.3]heptan-6-yl) nicotinamide] yielded an IC50 of 2 nM. The EC50 in the assay on TNFα came out at 79 nM.
For `CC(C)(O)[C@H](F)CNC(=O)c1cnc(-c2ccc3cc(C#N)cnn23)cc1NCC1(O)CC1` [Example 97, (R)-6-(3-cyanopyrrolo[1,2-b]pyridazin-7-yl)-N-(2-fluoro-3-hydroxy-3-methylbutyl)-4-(((1-hydroxycyclopropyl)methyl)amino)nicotinamide], in that order: 2 nM and 180 nM.
`CC(C)(O)[C@H](F)CNC(=O)c1cnc(-c2ccc3cc(C#N)cnn23)cc1NC1CN(S(C)(=O)=O)C1` [Example 98, (R)-6-(3-cyanopyrrolo[1,2-b]pyridazin-7-yl)-N-(2-fluoro-3-hydroxy-3-methylbutyl)-4-((1-(methylsulfonyl)azetidin-3-yl)amino)nicotinamide] showed an IC50 against IRAK4 enzyme of 2 nM. In the assay with TNFα, the EC50 was 358 nM.
Regarding `CC(C)(O)[C@H](F)CNC(=O)c1cnc(-c2ccc3cc(C#N)cnn23)cc1NC1CC2(CCC2)C1` [Example 99, (R)-6-(3-cyanopyrrolo[1,2-b]pyridazin-7-yl)-N-(2-fluoro-3-hydroxy-3-methylbutyl)-4-(spiro[3.3]heptan-2-ylamino)nicotinamide], the IC50 against IRAK4 enzyme stood at 1 nM. The EC50 with TNFα amounted to 130 nM.
For `COCCNc1cc(-c2ccc3cc(C#N)cnn23)ncc1C(=O)NC[C@@H](F)C(C)(C)O` [Example 100, (R)-6-(3-cyanopyrrolo[1,2-b]pyridazin-7-yl)-N-(2-fluoro-3-hydroxy-3-methylbutyl)-4-((2-methoxyethyl)amino) nicotinamide], in that order: 4 nM and 195 nM.
For `CC(C)(O)[C@H](F)CNC(=O)c1cnc(-c2ccc3cc(C#N)cnn23)cc1N[C@H]1C[C@@H]2CC[C@H]1C2` [Example 101, 4-(((1S,2S,4R)-bicyclo[2.2.1]heptan-2-yl)amino)-6-(3-cyanopyrrolo[1,2-b]pyridazin-7-yl)-N-((R)-2-fluoro-3-hydroxy-3-methylbutyl) nicotinamide], in that order: less than 1 nM and 82 nM.
Take `CC(C)(O)[C@H](F)CNC(=O)c1cnc(-c2ccc3cc(C#N)cnn23)cc1NCCCS(C)(=O)=O` [Example 103, (R)-6-(3-cyanopyrrolo[1,2-b]pyridazin-7-yl)-N-(2-fluoro-3-hydroxy-3-methylbutyl)-4-((3-(methylsulfonyl)propyl)amino)nicotinamide]: the IC50 on IRAK4 enzyme was less than 1 nM. In the assay on TNFα, the EC50 came to 75 nM.
For `Cn1cc(CNc2cc(-c3ccc4cc(C#N)cnn34)ncc2C(=O)NC[C@@H](F)C(C)(C)O)cn1` [Example 104, (R)-6-(3-cyanopyrrolo[1,2-b]pyridazin-7-yl)-N-(2-fluoro-3-hydroxy-3-methylbutyl)-4-(((1-methyl-1H-pyrazol-4-yl)methyl)amino) nicotinamide], in that order: 6 nM and 274 nM.
On the same counts, the results for `CC(C)(O)[C@H](F)CNC(=O)c1cnc(-c2ccc3cc(C#N)cnn23)cc1NCc1c[nH]cn1` [Example 105, (R)-4-(((1H-imidazol-4-yl)methyl)amino)-6-(3-cyanopyrrolo[1,2-b]pyridazin-7-yl)-N-(2-fluoro-3-hydroxy-3-methylbutyl)nicotinamide] are 9 nM and 3160 nM.
On to `CC(C)(O)[C@H](F)CNC(=O)c1cnc(-c2ccc3cc(C#N)cnn23)cc1NC[C@H]1CCC(=O)N1` [Example 106, 6-(3-cyanopyrrolo[1,2-b]pyridazin-7-yl)-N-((R)-2-fluoro-3-hydroxy-3-methylbutyl)-4-((((R)-5-oxopyrrolidin-2-yl)methyl)amino) nicotinamide], for which the IC50 against IRAK4 enzyme turned out to be 3 nM. Besides, the EC50 in the assay with TNFα stood at 1380 nM.
In turn, `Cc1noc(C)c1CNc1cc(-c2ccc3cc(C#N)cnn23)ncc1C(=O)NC[C@@H](F)C(C)(C)O` [Example 107, (R)-6-(3-cyanopyrrolo[1,2-b]pyridazin-7-yl)-4-(((3,5-dimethylisoxazol-4-yl)methyl)amino)-N-(2-fluoro-3-hydroxy-3-methylbutyl) nicotinamide] registered a half-maximal inhibitory concentration (IC50) against IRAK4 enzyme of 17 nM. In addition, the EC50 with TNFα is 961 nM.
On the same counts, the results for `CNC(=O)[C@H](C)Nc1cc(-c2ccc3cc(C#N)cnn23)ncc1C(=O)NC[C@@H](F)C(C)(C)O` [Example 108, 6-(3-cyanopyrrolo[1,2-b]pyridazin-7-yl)-N-((R)-2-fluoro-3-hydroxy-3-methylbutyl)-4-(((S)-1-(methylamino)-1-oxopropan-2-yl)amino) nicotinamide] are 88 nM and greater than 10000 nM.
Compound `CC(C)(O)[C@H](F)CNC(=O)c1cnc(-c2ccc3cc(C#N)cnn23)cc1N[C@H]1CCN(C2COC2)C1` [Example 110, 6-(3-cyanopyrrolo[1,2-b]pyridazin-7-yl)-N-((R)-2-fluoro-3-hydroxy-3-methylbutyl)-4-(((S)-1-(oxetan-3-yl)pyrrolidin-3-yl)amino) nicotinamide] returned an IC50 on IRAK4 enzyme of 4 nM. The EC50 with TNFα was 191 nM.
For `COCC1(Nc2cc(-c3ccc4cc(C#N)cnn34)ncc2C(=O)NC[C@@H](F)C(C)(C)O)CC1` [Example 112, (R)-6-(3-cyano-pyrrolo[1,2-b]pyridazin-7-yl)-N-(2-fluoro-3-hydroxy-3-methylbutyl)-4-((1-(methoxymethyl)cyclopropyl)amino)nicotinanide], in that order: 4 nM and 399 nM.
At IRAK4 enzyme, `CC(C)(O)[C@H](F)CNC(=O)c1cnc(-c2ccc3cc(C#N)cnn23)cc1N[C@H]1C[C@@H]2C[C@H]1CN2S(C)(=O)=O` [Example 113, 6-(3-cyanopyrrolo[1,2-b]pyridazin-7-yl)-N-((R)-2-fluoro-3-hydroxy-3-methylbutyl)-4-(((1S,4S,5S)-2-(methylsulfonyl)-2-azabicyclo[2.2.1]heptan-5-yl)amino)nicotinamide] showed an IC50 of 22 nM. In addition, the EC50 in the assay on TNFα stood at 3670 nM.
On the same counts, the results for `CN1CCC(Nc2cc(-c3ccc4cc(C#N)cnn34)ncc2C(=O)NC[C@@H](F)C(C)(C)O)CC1` [Example 114, (R)-6-(3-cyanopyrrolo[1,2-b]pyridazin-7-yl)-N-(2-fluoro-3-hydroxy-3-methylbutyl)-4-((1-methylpiperidin-4-yl)amino)nicotinamide] are 4 nM and 177 nM.
On the same counts, the results for `CC(C)(O)[C@H](F)CNC(=O)c1cnc(-c2ccc3cc(C#N)cnn23)cc1NC1CCN(C2CC2)CC1` [Example 115, (R)-6-(3-cyanopyrrolo[1,2-b]pyridazin-7-yl)-4-((1-cyclopropylpiperidin-4-yl)amino)-N-(2-fluoro-3-hydroxy-3-methylbutyl)nicotinamide] are 4 nM and 196 nM.
`CC(C)Nc1cc(-c2ccc3cc(C#N)cnn23)ncc1C(=O)NCC(F)(F)C(C)(C)O` [Example 116, 6-(3-cyanopyrrolo[1,2-b]pyridazin-7-yl)-N-(2,2-difluoro-3-hydroxy-3-methylbutyl)-4-(isopropylamino) nicotinamide]: the IC50 against IRAK4 enzyme is less than 1 nM. Moreover, the EC50 with TNFα worked out at 98 nM.
With `CC(C)(O)[C@H](F)CNC(=O)c1cnc(-c2ccc3cc(C#N)cnn23)cc1NC1CCC1` [Example 117, (R)-6-(3-cyanopyrrolo[1,2-b]pyridazin-7-yl)-4-(cyclobutyl-amino)-N-(2-fluoro-3-hydroxy-3-methylbutyl) nicotinamide], at IRAK4 enzyme, the IC50 is less than 1 nM. For the same compound, the EC50 in the assay with TNFα stood at 47 nM.
For `CC1(Nc2cc(-c3ccc4cc(C#N)cnn34)ncc2C(=O)NC[C@@H](F)C(C)(C)O)CC1` [Example 118, (R)-6-(3-cyanopyrrolo[1,2-b]pyridazin-7-yl)-N-(2-fluoro-3-hydroxy-3-methylbutyl)-4-((1-methylcyclopropyl)amino) nicotinamide], in that order: less than 1 nM and 25 nM.
On to `COCCn1cc(Nc2cc(-c3ccc4cc(C#N)cnn34)ncc2C(=O)NC[C@@H](F)C(C)(C)O)cn1` [Example 119, (R)-6-(3-cyanopyrrolo[1,2-b]pyridazin-7-yl)-N-(2-fluoro-3-hydroxy-3-methylbutyl)-4-((1-(2-methoxyethyl)-1H-pyrazol-4-yl)amino) nicotinamide], for which the IC50 at IRAK4 enzyme is less than 1 nM. For the same compound, the EC50 with TNFα worked out at 32 nM.
Regarding `CC(C)Nc1cc(-c2ccc3cc(C#N)cnn23)ncc1C(=O)N[C@H]1C[C@@](C)(O)C1` [Example 120, 6-(3-cyanopyrrolo[1,2-b]pyridazin-7-yl)-N-((1s,3s)-3-hydroxy-3-methylcyclobutyl)-4-(isopropylamino) nicotinamide], half-maximal inhibition against IRAK4 enzyme (IC50) was put at 8 nM. For the same compound, the EC50 in the assay with TNFα was 430 nM.
Regarding `CC(C)Nc1cc(-c2ccc3cc(C#N)cnn23)ncc1C(=O)NCC1CCS(=O)(=O)CC1` [Example 121, 6-(3-cyanopyrrolo[1,2-b]pyridazin-7-yl)-N-((1,1-dioxidotetrahydro-2H-thiopyran-4-yl)methyl)-4-(isopropylamino) nicotinamide], the IC50 against IRAK4 enzyme was 7 nM. Moreover, in the assay on TNFα, the EC50 came to 365 nM.
Take `CC(C)Nc1cc(-c2ccc3cc(C#N)cnn23)ncc1C(=O)NCC1(O)CCS(=O)(=O)C1` (stereo not shown) [Example 122, 6-(3-cyanopyrrolo[1,2-b]pyridazin-7-yl)-N-((3-hydroxy-1,1-dioxidotetrahydrothiophen-3-yl)methyl)-4-(isopropylamino)nicotinamide]: the IC50 against IRAK4 enzyme was found to be 17 nM. In addition, the EC50 in the assay with TNFα came out at 867 nM.
`CC(C)Nc1cc(-c2ccc3cc(C#N)cnn23)ncc1C(=O)NC1CCS(=O)(=O)C1` (stereo not shown) [Example 123, 6-(3-cyanopyrrolo[1,2-b]pyridazin-7-yl)-N-(1,1-dioxidotetrahydrothiophen-3-yl)-4-(isopropylamino) nicotinamide]: half-maximal inhibition on IRAK4 enzyme (IC50) was put at 6 nM. For the same compound, in the assay with TNFα, the EC50 was found to be 421 nM.
`CC(=O)N[C@H]1C[C@H](NC(=O)c2cnc(-c3ccc4cc(C#N)cnn34)cc2NC(C)C)C1` [Example 124, N-((1r,3r)-3-acetamido-cyclobutyl)-6-(3-cyano-pyrrolo[1,2-b]pyridazin-7-yl)-4-(isopropylamino) nicotinamide] showed an IC50 against IRAK4 enzyme of 3 nM. Also, in the assay with TNFα, the EC50 came to 182 nM.
